# In ChEMBL document CHEMBL1649169, “Multiresistance in Pasteurella multocida is mediated by coexistence of small plasmids” (2009):
# Experiments:
# Format in all cases: functional
# Pasteurella multocida [1] = test: Antibacterial activity against Pasteurella multocida BB1041 harboring plasmid pB1000 bearing blaROB-1 gene and plasmid pB9956 bearing tetH gene by CLSI M31-A3 broth microdilution method
# Pasteurella multocida [2] = test: Antibacterial activity against Pasteurella multocida BB1036 harboring plasmid pB1000 bearing blaROB-1 gene and plasmid pB1005 bearing strA, sul2 genes by CLSI M31-A3 broth microdilution method
# Pasteurella multocida [3] = test: Antibacterial activity against Pasteurella multocida BB1035 harboring plasmid pB1000 bearing blaROB-1 gene and plasmid pB1005 bearing strA, sul2 genes by CLSI M31-A3 broth microdilution method
# Pasteurella multocida [4] = test: Antibacterial activity against Pasteurella multocida BB1040 harboring plasmid pB1000 bearing blaROB-1 gene and plasmid pB9956 bearing tetH gene by CLSI M31-A3 broth microdilution method
# Pasteurella multocida [5] = test: Antibacterial activity against Pasteurella multocida BB1039 harboring plasmid pB1000 bearing blaROB-1 gene and plasmid pB9956 bearing tetH gene by CLSI M31-A3 broth microdilution method
# Pasteurella multocida [6] = test: Antibacterial activity against Pasteurella multocida BB1046 harboring plasmid pB1003 bearing blaROB-1 gene and plasmid pB1002 bearing strA, sul2 genes by CLSI M31-A3 broth microdilution method
# Pasteurella multocida [7] = test: Antibacterial activity against Pasteurella multocida BB1044 harboring plasmid pB1000 bearing blaROB-1 gene, plasmid 1006 bearing tetO gene and plasmid pB1005 bearing strA, sul2 genes by CLSI M31-A3 broth microdilution method
# Pasteurella multocida [8] = test: Antibacterial activity against Pasteurella multocida BB1043 harboring plasmid pB1000 bearing blaROB-1 gene and plasmid pB9956 bearing tetH gene by CLSI M31-A3 broth microdilution method
# Pasteurella multocida [9] = test: Antibacterial activity against Pasteurella multocida BB1034 harboring plasmid pB1000 bearing blaROB-1 gene and plasmid pB1001 bearing tetB gene by CLSI M31-A3 broth microdilution method
# Pasteurella multocida [10] = test: Antibacterial activity against Pasteurella multocida BB1042 harboring plasmid pB1000 bearing blaROB-1 gene and plasmid pB9956 bearing tetH gene by CLSI M31-A3 broth microdilution method
# Pasteurella multocida [11] = test: Antibacterial activity against Pasteurella multocida BB1037 harboring plasmid pB1000 bearing blaROB-1 gene and plasmid pB1005 bearing strA, sul2 genes by CLSI M31-A3 broth microdilution method
# Pasteurella multocida [12] = test: Antibacterial activity against Pasteurella multocida BB1045 harboring plasmid pB1000 bearing blaROB-1 gene and plasmid pB9956 bearing tetH gene by CLSI M31-A3 broth microdilution method
# Pasteurella multocida [13] = test: Antibacterial activity against Pasteurella multocida ATCC 43137 by CLSI M31-A3 broth microdilution method
# Pasteurella multocida [14] = test: Antibacterial activity against Pasteurella multocida BB1038 harboring plasmid pB1000 bearing blaROB-1 gene and plasmid pB1005 bearing strA, sul2 genes by CLSI M31-A3 broth microdilution method
SMILES,MIC (Pasteurella multocida [1]),MIC (Pasteurella multocida [2]),MIC (Pasteurella multocida [3]),MIC (Pasteurella multocida [4]),MIC (Pasteurella multocida [5]),MIC (Pasteurella multocida [6]),MIC (Pasteurella multocida [7]),MIC (Pasteurella multocida [8]),MIC (Pasteurella multocida [9]),MIC (Pasteurella multocida [10]),MIC (Pasteurella multocida [11]),MIC (Pasteurella multocida [12]),MIC (Pasteurella multocida [13]),MIC (Pasteurella multocida [14])
CC1(C)S[C@@H]2[C@H](NC(=O)[C@H](N)c3ccc(O)cc3)C(=O)N2[C@H]1C(=O)O [AMOXICILLIN],> 256 µg/mL,> 256 µg/mL,> 256 µg/mL,> 256 µg/mL,> 256 µg/mL,> 256 µg/mL,> 256 µg/mL,> 256 µg/mL,> 256 µg/mL,> 256 µg/mL,> 256 µg/mL,> 256 µg/mL,≤ 1 µg/mL,> 256 µg/mL
N[C@@H](C(=O)N[C@@H]1C(=O)N2C(C(=O)O)=C(Cl)CS[C@H]12)c1ccccc1 [CEFACLOR ANHYDROUS],> 16 µg/mL,> 16 µg/mL,> 16 µg/mL,> 16 µg/mL,> 16 µg/mL,> 16 µg/mL,> 16 µg/mL,> 16 µg/mL,> 16 µg/mL,> 16 µg/mL,> 16 µg/mL,> 16 µg/mL,≤ 1 µg/mL,> 16 µg/mL
CO/N=C(\C(=O)N[C@@H]1C(=O)N2C(C(=O)O)=C(COC(C)=O)CS[C@H]12)c1csc(N)n1 [CEFOTAXIME],1 µg/mL,1 µg/mL,0.5 µg/mL,1 µg/mL,1 µg/mL,0.5 µg/mL,1 µg/mL,1 µg/mL,1 µg/mL,1 µg/mL,1 µg/mL,1 µg/mL,≤ 0.06 µg/mL,1 µg/mL
CC1(C)S[C@@H]2[C@H](NC(=O)Cc3ccccc3)C(=O)N2[C@H]1C(=O)O [PENICILLIN G],> 16 µg/mL,> 16 µg/mL,> 16 µg/mL,> 16 µg/mL,> 16 µg/mL,> 16 µg/mL,> 16 µg/mL,> 16 µg/mL,> 16 µg/mL,> 16 µg/mL,> 16 µg/mL,> 16 µg/mL,≤ 0.03 µg/mL,> 16 µg/mL
CN[C@@H]1[C@H](O[C@H]2[C@H](O[C@H]3[C@H](O)[C@@H](O)[C@H](N=C(N)N)[C@@H](O)[C@@H]3N=C(N)N)O[C@@H](C)[C@]2(O)C=O)O[C@@H](CO)[C@H](O)[C@H]1O [STREPTOMYCIN],16 µg/mL,> 256 µg/mL,> 256 µg/mL,16 µg/mL,8 µg/mL,> 256 µg/mL,> 256 µg/mL,8 µg/mL,32 µg/mL,8 µg/mL,> 256 µg/mL,16 µg/mL,8 µg/mL,> 256 µg/mL
Cc1cc(NS(=O)(=O)c2ccc(N)cc2)no1 [SULFAMETHOXAZOLE],> 256 µg/mL,> 256 µg/mL,> 256 µg/mL,> 256 µg/mL,> 256 µg/mL,> 256 µg/mL,> 256 µg/mL,> 256 µg/mL,> 256 µg/mL,> 256 µg/mL,> 256 µg/mL,> 256 µg/mL,> 256 µg/mL,> 256 µg/mL
CN(C)[C@@H]1C(O)=C(C(N)=O)C(=O)[C@@]2(O)C(O)=C3C(=O)c4c(O)cccc4[C@@](C)(O)[C@H]3C[C@@H]12 [TETRACYCLINE],32 µg/mL,2 µg/mL,2 µg/mL,32 µg/mL,32 µg/mL,1 µg/mL,32 µg/mL,32 µg/mL,16 µg/mL,32 µg/mL,2 µg/mL,32 µg/mL,2 µg/mL,2 µg/mL
